From patent US20260193268A1, “TRICYCLIC PI3Ka INHIBITOR, PREPARATION METHOD THEREFOR, AND PHARMACEUTICAL USE THEREOF” (WIGEN BIOMEDICINE TECHNOLOGY (SHANGHAI) CO., LTD., priority 2022, published 2026)
Where two headings read alike, the source gives them in different places.

Key:
[1] = tested on: HCC1954 cells (with PI3Kα H1047R mutation); test: In vitro inhibition of HCC1954 cell proliferation (CellTiter-Lumi); format: cell-based; settings: Homo sapiens, HCC1954, 144 h, HCC1954 cells, 144 h, CellTiter-Lumi
Procedure: Assay for In Vitro Inhibition of HCC1954 Cell Proliferation by Compounds of the Present Disclosure
The growth of the cells was evaluated, and the IC50 for the inhibition of cell growth by the compounds was calculated.

[2] = tested on: MCF-7 cells (with PI3Kα E545K mutation); test: In vitro inhibition of MCF-7 cell proliferation (CellTiter-Lumi); format: cell-based; settings: Homo sapiens, MCF7, 144 h
Procedure: Biological Example 3. Assay for In Vitro Inhibition of MCF-7 Cell Proliferation by Compounds of the Present Disclosure
MCF-7 cells (with PI3Kα E545K mutation) were seeded into a 384-well plate (Fisher 142762) at 2000 cells per well. The next day, serially diluted compounds were added, and 144 h after the addition, CellTiter-Lumi (Beyotime C0068XL) was added to measure the ATP content in the cells. The growth of the cells was evaluated, and the IC50 for the inhibition of cell growth by the compounds was calculated.

[3] = class symbols, read-out: Inhibitory activity against HCC1954 cells (IC50), class symbols
[4] = class symbols, read-out: Inhibitory activity against MCF-7 cells (IC50), class symbols
[5] = numeric values, read-out: Inhibitory activity against HCC1954 cells (IC50)
[6] = numeric values, read-out: Inhibitory activity against MCF-7 cells (IC50)

Row | Compound | IC50 [1, 3] [nM] | IC50 [2, 4] [nM] | IC50 [1, 5] [nM] | IC50 [2, 6] [nM]
1 | CN(C1CCC1)C(C)(C)C=C(C#N)C(=O)Nc1ccc(N2CC(N3CCN(c4ccc5c(c4)-c4nc(N6C(=O)OC[C@H]6C(F)F)cn4CCO5)CC3)C2)cc1 [Compound 156] | – | – | 49 | 19
2 | CC=C(C#N)C(=O)Nc1ccc(N2CC(N3CCN(c4ccc5c(c4)-c4nc(N6C(=O)OC[C@H]6C(F)F)cn4CCO5)CC3)C2)c(F)c1 [Compound 236] | < 50 | < 50 | – | –
3 | C=CC(=O)N1CCC(CN2CCC(N3CCN(c4ccc5c(c4)-c4nc(N6C(=O)OC[C@H]6C(F)F)cn4CCO5)CC3)CC2)CC1 [Compound 9] | – | – | > 1000 | 75
4 | C=CC(=O)Nc1ncc(N2CC(N3CCN(c4ccc5c(c4)-c4nc(N6C(=O)OC[C@H]6C(F)F)cn4CCO5)CC3)C2)cc1C [Compound 163] | – | – | 6.6 | 0.5
5 | C=CC(=O)Nc1ccc(N2CC(CN3CC4(C3)CN(c3ccc5c(c3)-c3nc(N6C(=O)OC[C@H]6C(F)F)cn3CCO5)C4)C2)cc1 [Compound 25] | – | – | > 1000 | 390
6 | CN(C)C/C=C/C(=O)Nc1cnc(N2CC(N3CCN(c4ccc5c(c4)-c4nc(N6C(=O)OC[C@H]6C(F)F)cn4CCO5)CC3)C2)nc1 [Compound 288] | < 50 | < 50 | – | –
7 | NC/C=C/C(=O)Nc1ccc(N2CC(N3CCN(c4ccc5c(c4)-c4nc(N6C(=O)OC[C@H]6C(F)F)cn4CCO5)CC3)C2)cc1 [Compound 170] | – | – | 77 | 17
8 | CC(C)(O)C=C(C#N)C(=O)Nc1cnc(N2CC(N3CCN(c4ccc5c(c4)-c4nc(N6C(=O)OC[C@H]6C(F)F)cn4CCO5)CC3)C2)nc1 [Compound 266] | < 50 | < 50 | – | –
9 | COCCNC(C)(C)C=C(C#N)C(=O)Nc1cnc(N2CC(N3CCN(c4ccc5c(c4)-c4nc(N6C(=O)OC[C@H]6C(F)F)cn4CCO5)CC3)C2)nc1 [Compound 268] | < 50 | < 50 | – | –
10 | CC(C)(C)OC(=O)NC1(C=C(C#N)C(=O)Nc2ccc(N3CC(N4CCN(c5ccc6c(c5)-c5nc(N7C(=O)OC[C@H]7C(F)F)cn5CCO6)CC4)C3)cc2)CC1 [Compound 326] | < 50 | < 50 | – | –
11 | C=CC(=O)Nc1ccc(N2CC3(CCN(c4ccc5c(c4)-c4nc(N6C(=O)OC[C@H]6C(F)F)cn4CCO5)CC3)C2)cc1 [Compound 18] | – | – | 68 | 25
12 | C=CC(=O)N1CCn2nc(N3CC(N4CCN(c5ccc6c(c5)-c5nc(N7C(=O)OC[C@H]7C(F)F)cn5CCO6)CC4)C3)cc2C1 [Compound 164] | – | – | 53 | 3
13 | C=CC(=O)Nc1ccc(N2CC(N3CCN(c4ccc5c(c4)-c4nc(N6C(=O)OC[C@H]6C(F)F)cn4CCO5)CC3)C2)cc1OC(F)(F)F [Compound 279] | – | – | 2.8 | 0.1
14 | C=CC(=O)Nc1ccc(N2CC(N3CCN(c4ccc5c(c4)-c4nc(-c6nc(C)nn6C(C)C)cn4CCO5)CC3)C2)cc1 [Compound 111] | – | – | 2.5 | 0.1
15 | C=CC(=O)Nc1ccc(N2CCN(CC#Cc3ccc4c(c3)-c3nc(N5C(=O)OC[C@H]5C(F)F)cn3CCO4)CC2)cc1 [Compound 182] | 50 to 100 | 50 to 100 | – | –
16 | C=CC(=O)N1CCC(N2CCC(CN3CCN(c4ccc5c(c4)-c4nc(N6C(=O)OC[C@H]6C(F)F)cn4CCO5)CC3)CC2)CC1 [Compound 8] | – | – | > 1000 | 63
17 | CC(C)(C)C=C(C#N)C(=O)Nc1cnc(N2CC(N3CCN(c4ccc5c(c4)-c4nc(N6C(=O)OC[C@H]6C(F)F)cn4CCO5)CC3)C2)nc1 [Compound 259] | < 50 | < 50 | – | –
18 | C=CC(=O)Nc1ccc(N2CCC(C/C=C/c3ccc4c(c3)-c3nc(N5C(=O)OCC5C(F)F)cn3CCO4)CC2)cc1 (stereo not shown) [Compound 210] | 50 to 100 | < 50 | – | –
19 | CC(C)(C=C(C#N)C(=O)Nc1ccc(N2CC(N3CCN(c4ccc5c(c4)-c4nc(N6C(=O)OC[C@H]6C(F)F)cn4CCO5)CC3)C2)nc1)N1CCOCC1 [Compound 240] | < 50 | < 50 | – | –
20 | CC(C)(N)/C=C/C(=O)Nc1ccc(N2CC(N3CCN(c4ccc5c(c4)-c4nc(N6C(=O)OC[C@H]6C(F)F)cn4CCO5)CC3)C2)cc1 [Compound 276] | < 50 | < 50 | – | –
21 | CC1CC1C=C(C#N)C(=O)Nc1ccc(N2CC(N3CCN(c4ccc5c(c4)-c4nc(N6C(=O)OC[C@H]6C(F)F)cn4CCO5)CC3)C2)cc1 (stereo partly shown) [Compound 284] | < 50 | < 50 | – | –
22 | C=CC(=O)N1CC(N2CCC(CN3CC=C(c4ccc5c(c4)-c4nc(N6C(=O)OC[C@H]6C(F)F)cn4CCO5)CC3)CC2)C1 [Compound 88] | – | – | 212 | 32
23 | C=CC(=O)Nc1ccc(N2CCN(c3ccc(-c4ccc5c(c4)-c4nc(N6C(=O)OC[C@H]6C(F)F)cn4CCO5)cc3)CC2)cc1 [Compound 196] | > 1000 | > 1000 | – | –
24 | C=CC(=O)N1CC[C@H](CN2CC3(CCN(c4ccc5c(c4)-c4nc(N6C(=O)OC[C@H]6C(F)F)cn4CCO5)CC3)C2)C1 [Compound 22] | – | – | > 1000 | 143
25 | C=CC(=O)Nc1ccc(N2CCC3(CCN(c4ccc5c(c4)-c4nc(N6C(=O)OC[C@H]6C(F)F)cn4CCO5)CC3)C2)cc1 [Compound 94] | – | – | 300 | 76
26 | CC(C)(C=C(C#N)C(=O)Nc1ccc(N2CC(N3CCN(c4ccc5c(c4)-c4nc(N6C(=O)OC[C@H]6C(F)F)cn4CCO5)CC3)C2)cc1Cl)N1CCC1 [Compound 363] | < 50 | < 50 | – | –
27 | C=CC(=O)Nc1ccc(N2CC(N3CCN(c4ccc5c(c4)-c4nc(N6C(=O)OC[C@H]6C(F)F)cn4CCO5)CC3)C2)c(C)c1 [Compound 129] | – | – | 6.9 | 0.3

More lines, now with the values ahead:

Row | IC50 [1, 3] [nM] | IC50 [2, 4] [nM] | IC50 [1, 5] [nM] | IC50 [2, 6] [nM] | Compound
28 | < 50 | < 50 | – | – | CC(C)(C=C(C#N)C(=O)Nc1ccc(N2CC(N3CCN(c4ccc5c(c4)-c4nc(N6C(=O)OC[C@H]6C(F)F)cn4CCO5)CC3)C2)c(F)c1)NC(=O)OC(C)(C)C [Compound 345]
29 | – | – | 180 | 18 | C=CC(=O)Nc1ccc(N2CCC(N3CCN(c4ccc5c(c4)-c4nc(N6C(=O)OC[C@H]6C(F)F)cn4CCO5)CC3)C2)cc1 (stereo partly shown) [Compound 28]
30 | < 50 | < 50 | – | – | CC(C)(C=C(C#N)C(=O)Nc1ccc(N2CC(N3CCN(c4ccc5c(c4)-c4nc(N6C(=O)OC[C@H]6C(F)F)cn4CCO5)CC3)C2)c(F)c1)NC1(C)COC1 [Compound 384]
31 | < 50 | < 50 | – | – | CC(C)(C=C(C#N)C(=O)Nc1ccc(N2CC(N3CCN(c4ccc5c(c4)-c4nc(N6C(=O)OC[C@H]6C(F)F)cn4CCO5)CC3)C2)cc1Cl)NC1COC1 [Compound 362]
32 | < 50 | < 50 | – | – | Cc1nc(-c2cn3c(n2)-c2cc(N4CCN(C5CN(c6ccc(NC(=O)C(C#N)=CC(C)(C)C)cc6Cl)C5)CC4)ccc2OCC3)n(C(C)C)n1 [Compound 369]
33 | – | – | 32 | 4.3 | CNC/C=C/C(=O)Nc1ccc(N2CC(N3CCN(c4ccc5c(c4)-c4nc(N6C(=O)OC[C@H]6C(F)F)cn4CCO5)CC3)C2)cc1 [Compound 186]
34 | < 50 | < 50 | – | – | CNC(C)(C)C=C(C#N)C(=O)Nc1ncc(N2CC(N3CCN(c4ccc5c(c4)-c4nc(N6C(=O)OC[C@H]6C(F)F)cn4CCO5)CC3)C2)cn1 [Compound 300]
35 | < 50 | < 50 | – | – | CN(C1COC1)C(C)(C)C=C(C#N)C(=O)Nc1ncc(N2CC(N3CCN(c4ccc5c(c4)-c4nc(N6C(=O)OC[C@H]6C(F)F)cn4CCO5)CC3)C2)cn1 [Compound 292]
36 | < 50 | < 50 | – | – | N#CC(=CC1CC1)C(=O)Nc1ccc(N2CC(N3CCN(c4ccc5c(c4)-c4nc(N6C(=O)OC[C@H]6C(F)F)cn4CCO5)CC3)C2)c(F)c1 [Compound 227]
37 | < 50 | < 50 | – | – | Cc1nc(-c2cn3c(n2)-c2cc(N4CCN(C5CN(c6ccc(NC(=O)C(C#N)=CC(C)(C)NC(=O)OC(C)(C)C)cc6F)C5)CC4)ccc2OCC3)n(C(C)C)n1 [Compound 374]
38 | 50 to 100 | < 50 | – | – | C=CC(=O)Nc1ccc(N2CCC(C#Cc3ccc4c(c3)-c3nc(N5C(=O)OC[C@H]5C(F)F)cn3CCO4)CC2)cc1 [Compound 202]
39 | < 50 | < 50 | – | – | CC(C)(C)C=C(C#N)C(=O)Nc1ccc(N2CC(N3CCN(c4ccc5c(c4)-c4nc(N6C(=O)OC[C@H]6C(F)F)cn4CCO5)CC3)C2)c(Cl)c1 [Compound 355]
40 | < 50 | < 50 | – | – | CC=C(C#N)C(=O)Nc1ccc(N2CC(N3CCN(c4ccc5c(c4)-c4nc(N6C(=O)OC[C@H]6C(F)F)cn4CCO5)CC3)C2)cc1 [Compound 187]
41 | < 50 | < 50 | – | – | CC=C(C#N)C(=O)Nc1cnc(N2CC(N3CCN(c4ccc5c(c4)-c4nc(N6C(=O)OC[C@H]6C(F)F)cn4CCO5)CC3)C2)nc1 [Compound 272]
42 | < 50 | < 50 | – | – | CC(C)(C=C(C#N)C(=O)Nc1ccc(N2CC(N3CCN(c4ccc5c(c4)-c4nc(N6C(=O)OC[C@H]6C(F)F)cn4CCO5)CC3)C2)c(Cl)c1)NC1(C)COC1 [Compound 385]
43 | – | – | 2.2 | 0.1 | C=CC(=O)N1CCc2cc(N3CC(N4CCN(c5ccc6c(c5)-c5nc(N7C(=O)OC[C@H]7C(F)F)cn5CCO6)CC4)C3)c(F)cc21 [Compound 177]
44 | – | – | 83 | 38 | C/C=C/C(=O)Nc1ccc(N2CC(N3CCN(c4ccc5c(c4)-c4nc(N6C(=O)OC[C@H]6C(F)F)cn4CCO5)CC3)C2)cc1 [Compound 101]
